Assay results as given in BigSolDB 2.1.

C[N+](C)(C)CCOC(=O)CCCC(=O)O.[Cl-]
Details	solubility (mole fraction)
in ethanol, 300.2 K	0.006
in ethanol, 310.6 K	0.008
in ethanol, 316.8 K	0.01
in ethanol, 318.5 K	0.012
in ethanol, 322.1 K	0.017
in ethanol, 325.4 K	0.023
in ethanol, 333.2 K	0.033
in ethanol, 335.8 K	0.039
in ethanol, 338.1 K	0.043
in ethanol, 339.4 K	0.055
in n-butanol, 304.8 K	0.001
in n-butanol, 318.7 K	0.0019
in n-butanol, 323.8 K	0.0022
in n-butanol, 327.5 K	0.0025
in n-butanol, 330.4 K	0.0029
in n-butanol, 335.1 K	0.0035
in n-butanol, 341 K	0.004
in n-propanol, 305.4 K	0.002
in n-propanol, 306.6 K	0.003
in n-propanol, 309.4 K	0.003
in n-propanol, 315.5 K	0.004
in n-propanol, 319.9 K	0.005
in n-propanol, 324.6 K	0.008
in n-propanol, 331.2 K	0.011
in n-propanol, 335.1 K	0.013
in n-propanol, 338.5 K	0.017

CC(=O)[O-].C[N+](C)(C)CCO
Details	solubility (mole fraction)
in ethanol, 259.8 K	0.049
in ethanol, 261.8 K	0.067
in ethanol, 263.9 K	0.09
in ethanol, 265.7 K	0.112
in ethanol, 267.1 K	0.13
in ethanol, 267.8 K	0.143
in ethanol, 271.7 K	0.174
in ethanol, 272.1 K	0.184
in ethanol, 276.6 K	0.228
in ethanol, 278.5 K	0.252
in ethanol, 282.8 K	0.29
in ethanol, 286.1 K	0.319
in n-butanol, 268.2 K	0.023
in n-butanol, 273 K	0.048
in n-butanol, 276.9 K	0.074
in n-butanol, 279.9 K	0.102
in n-butanol, 281.8 K	0.136
in n-butanol, 284.2 K	0.172
in n-butanol, 287.7 K	0.209
in n-butanol, 290.4 K	0.233
in n-butanol, 295.4 K	0.293
in n-butanol, 297.7 K	0.317
in n-propanol, 263.8 K	0.0191
in n-propanol, 266.9 K	0.0394
in n-propanol, 270.3 K	0.062
in n-propanol, 273.1 K	0.0844
in n-propanol, 274.1 K	0.11
in n-propanol, 276 K	0.144
in n-propanol, 277.7 K	0.174
in n-propanol, 279.9 K	0.211
in n-propanol, 280.9 K	0.234
in n-propanol, 282.7 K	0.269
in n-propanol, 285.2 K	0.316

C[N+](C)(C)CCOC(=O)CCC(=O)O.[Cl-]
Details	solubility (mole fraction)
in ethanol, 299 K	0.008
in ethanol, 300.8 K	0.01
in ethanol, 305.5 K	0.015
in ethanol, 310.9 K	0.02
in ethanol, 313.1 K	0.026
in ethanol, 315.6 K	0.028
in ethanol, 320.5 K	0.038
in ethanol, 322 K	0.044
in n-butanol, 300.4 K	0.003
in n-butanol, 308.8 K	0.004
in n-butanol, 312.7 K	0.006
in n-butanol, 318.8 K	0.008
in n-butanol, 322.4 K	0.009
in n-butanol, 326.4 K	0.012
in n-butanol, 329.8 K	0.014
in n-butanol, 338.8 K	0.016
in n-propanol, 299.2 K	0.006
in n-propanol, 305.5 K	0.008
in n-propanol, 310.9 K	0.01
in n-propanol, 318.7 K	0.013
in n-propanol, 325.2 K	0.02
in n-propanol, 328.9 K	0.025
in n-propanol, 333.2 K	0.031
in n-propanol, 336.1 K	0.039

C[N+](C)(C)CCO.[Cl-]
Details	solubility (mole fraction)
in ethanol, 269.8 K	0.017
in ethanol, 276.4 K	0.027
in ethanol, 281.8 K	0.038
in ethanol, 287.2 K	0.054
in ethanol, 290.5 K	0.066
in ethanol, 292.4 K	0.072
in ethanol, 296.7 K	0.082
in ethanol, 300.5 K	0.089
in ethanol, 305.7 K	0.098
in ethanol, 308.4 K	0.109
in ethanol, 315.3 K	0.125
in ethanol, 321.6 K	0.138
in n-butanol, 314.6 K	0.031
in n-butanol, 321.2 K	0.049
in n-butanol, 328.6 K	0.068
in n-butanol, 340.8 K	0.086
in n-butanol, 346.4 K	0.109
in n-butanol, 349.4 K	0.131
in n-butanol, 352.9 K	0.147
in n-propanol, 288.9 K	0.015
in n-propanol, 295.7 K	0.023
in n-propanol, 302.3 K	0.039
in n-propanol, 308.7 K	0.05
in n-propanol, 309.6 K	0.059
in n-propanol, 316.5 K	0.073
in n-propanol, 323.2 K	0.086
in n-propanol, 330.7 K	0.108
in n-propanol, 335.3 K	0.129
in n-propanol, 338 K	0.153
